In patent US8906832B2, “Quantitative analysis of carbohydrate-protein interactions using glycan microarrays: determination of surface and solution dissociation constants” (Academia Sinica, priority 2008, dated 2014):
Read-outs that look alike come from different tables or passages of the source.

Legend:
[1] = target: T1, Con A (Canavalia ensiformis, UniProt P02866); details: obtained by microcalorimetry; cited from earlier work
T1 construct: purchased Sigma

[2] = target: T1, Con A; test: Competitive binding assay on glycan microarray (solution KD / Ki)
Excerpt: The solution equilibrium dissociation constant (KD) for carbohydrate-lectin interactions can be determined using microarrays in a competitive assay. […] In a competitive binding experiment, carbohydrates in solution compete with immobilized carbohydrate ligands for the binding sites on the lectin, establishing a coupled equilibrium between the binding of protein to the immobilized species and to the species present in solution. Using array imaging signals, the unbound protein concentration [P] can be obtained via Langmuir isotherms (eq 1). Once the concentration of P has been measured, it is possible to determine the KD using eq 2, which is derived from the multivalent Scatchard formula (see the Experimental Section for the derivation of eq 2)
where [Lo] is ligand (carbohydrate) concentration applied to the system, and KD is the solution equilibrium dissociation constant. […] Binding curves, representing different concentrations of competitors were obtained as the function of FITC-Con A concentrations and fluorescence intensities from the Man8 surface (FIG. 4a). The data was analyzed according to eq 2, to afford apparent KD values, which were then replotted against competitor concentration to afford the solution KD values (FIG. 4b). […]
ArrayVision 8.0 (Applied Precision) was used for the fluorescence analysis and extraction of data. […]

[3] = target: T1, Con A; details: obtained by SPR; cited from earlier work
[4] = target: T2, lectins or antibodies (Lens culinaris, UniProt P02870); test: Direct binding on glycan microarray, lectin or antibody not named; details: binding protein not given
T2 construct: purchased Sigma
T2 sequence (P02870 31-210 limits assumed): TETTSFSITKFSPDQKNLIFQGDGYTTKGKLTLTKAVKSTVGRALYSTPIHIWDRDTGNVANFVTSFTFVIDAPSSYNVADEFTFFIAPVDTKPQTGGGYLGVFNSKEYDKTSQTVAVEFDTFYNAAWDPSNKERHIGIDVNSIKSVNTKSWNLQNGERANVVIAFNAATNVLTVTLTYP
T2 sequence (P02870 218-269 limits assumed): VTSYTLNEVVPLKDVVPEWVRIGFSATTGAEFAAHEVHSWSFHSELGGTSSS
Excerpt: Prior studies of carbohydrate-protein interactions have used a threshold-based, one-step qualitative analysis i.e. interaction or non-interaction. The threshold varies from one carbohydrate to another and is based on how well the carbohydrate behaves in the assay. Even when closely related glycans are studied under ideal conditions, they vary with respect to the surface density of active carbohydrates. Since the intensity of a spot depends both on KD,surf (which results from binding affinity), and Fmax (which results from surface active carbohydrate density and protein binding), the information obtained by probing an array with a single concentration of analytes may not be accurate.

| Compound | Ki [1] | relative affinity KD (a-MeGlc)/KD (a-MeMan) ([2]; inhibitors in solution, Con A) | Ki [3] | Fmax (maximal fluorescence intensity) [4] | Kd ([4]; read-out: KD (dissociation constant, surface)) | fold stronger than Man1 in binding to Con A ([2]; from solution KD values) |
| --- | --- | --- | --- | --- | --- | --- |
| COC1OC(CO)C(O)C(O)C1O (stereo not drawn) [a-MeGlc, α-methyl glucose] | 520 µM | – | – | – | – | – |
| COC1OC(CO)C(O)C(O)C1O (stereo not drawn) [a-MeMan, α-methyl mannose] | 120 µM | 4.3 | 92 µM | – | – | – |
| Man9 | – | – | – | 25780 | 0.335 µM | more than 10^3 fold |
